Source: patent US20140106387A1, “METHOD FOR CONTROLLING NAD(P)/NAD(P)H RATIO BY OXIDOREDUCTASE” (MD BIOALPHA CO., LTD., priority 2006, published 2014)

Columns and labels:
[1] = body weight and dietary intake of leptin receptor-deficient (ob/ob) mice; type: in vivo, mouse
Experimental: All experimental animal procedures were performed according to a guideline of Institutional Animal Care and Use Committee, Chungnam National University School of Medicine. OLETF rats were purchased from Otsuka Research Institute. Male ob/ob and C57BL/6 mice were purchased from Jackson Laboratory. Animals were housed in a breeding room maintained at a constant temperature of […] and a 12 h/12 h light/dark (L/D) cycle. 4-week-old C57BL/6 male mice were fed ad libitum high fat diet (HFD, 24% (w/w) and 45% calories as fat, Research Diets Inc., New Brunswick, N.J. 08901, US) for 7 weeks. Mouse groups were divided into an untreated group, a vehicle-treated group (calcium silicate), a pair-fed group and a candidate compound-treated group (calcium silicate-coated […] nanoparticles). Body weight and dietary intake of animals were daily measured. Upon completion of experiments, some mice of each group were anesthetized and received MRI examinations. The remaining mice of the groups were anatomized and tissue weight thereof was measured. Epidydimal fat, liver, soleus muscle and extensor digitorum longus (EDL) were prepared, and immunohistochemical, oil-red 0 and pH-sensitive ATPase staining were performed for analysis.
FIGS. 46 and 47 show changes in dietary intake/body weight and changes in body weight for 56 days, according to daily administration of pyrano-1,2-naphthoquinone into leptin receptor-deficient (ob/ob) mice at a dose of 200 mg/kg via an oral route.
This Example was intended to examine effects of varying in vivo NAD(P)^+/NAD(P)H ratio by arbitrary external supply of NAD(P)^+, a method capable of elevating the NAD(P)^+/NAD(P)H ratio in vivo. 100 mg/kg of NAD^+ was administered daily to leptin receptor-deficient (ob/ob) mice via an intraperitoneal (i.p.) route. A control mice group was given i.p. administration of physiological saline at the same dose. Changes in dietary intake/body weight (A) and changes in body weight (B) were measured for 30 days.
200 mg/kg of DMF was daily administered to leptin receptor-deficient (ob/ob) mice via an oral route. A control group received daily i.p. administration of physiological saline at the same dose. Changes in body weight (A) and changes in dietary intake (B) were measured for 30 days. It was confirmed that dietary intake of the treatment group was regulated to a 60 to 70% level of the control group.
For a variety of NQO1-activating candidate compounds as listed in Table 1 below, a decrease of NAD(P)H was measured based on the aforesaid experimental method (disclosed in Section 10 hereinbefore: NADH recycling assay). In addition, according to the experimental method given in Example 23, the body weight of ob/ob mice after four weeks was measured.
In this connection, the decreasing degree of NAD(P)H was expressed as a relative amount of NAD(P)H measured upon administration of the NQO1-activating candidate compound, by taking the amount of NAD(P)H in the absence of the NQO1 activator NAD(P)H to be 100. In addition, the degree of the body weight loss was expressed as a percentage of the body weight of ob/ob mice with administration of the NQO1-activating candidate compound, relative to the body weight of ob/ob mice without administration of the NQO1-activating candidate compound (control) after four weeks.

[2] = test system: AMPKα, ACC; assay: AMPKα and ACC phosphorylation in tissues of DIO mice (Western blot); type: in vivo, mouse
Experimental: HepG2 (human hepatoma cell line), HEK293 (Human embryonic kidney cell line), and C2C12/L6 myoblasts were purchased from American Type Culture Collection (ATCC, Manassas, Va., USA). LKB−/− MEFs were purchased from R.A. DePinho. Rat ventricular myocytes were enzymatically isolated from the heart of adult […] by a known method. Phosphorylation of AMPK (Thr172) and ACC (Ser79) was measured by Western blot analysis using Cell Signaling Technologies and pan- and phospho-specific antibodies (Upstate Biotechnology, Inc., Lake Placid, N.Y.).
Using various proteins extracted from liver, gonadal fat (WAT), EDL and soleus muscle of DIO mice treated with a vehicle or βL for 2 days, T172 phosphorylation of AMPKα and S79 phosphorylation of ACC in each tissue were measured by Western blot analysis.
FIG. 26 is a photograph showing effects of an NQO1 activator on AMPK & ACC phosphorylation in C57BL/6 mice. In order to investigate anti-obesity effects of an NQO1 activator, the NQO1 activator was administered daily to DIO mice at a dose of 50 mg/kg via an oral route, and effects of the NQO1 activator on phosphorylation of AMPK and ACC, which play an important role in energy metabolism and lipogenesis in the liver and gonadal adipose tissues, were examined. […] Phosphorylated AMPK is believed to activate metabolism associated with energy. Whereas, it is believed that ACC, which is affected by activation of AMPK, is phosphorylated and lipogenic activity thereof is then inhibited, which will then exert some effects on lipid metabolism including inhibition of obesity.

Structure (SMILES): CC1(C)CCC2=C(O1)c1ccccc1C(=O)C2=O [βL, 2,2-Dimethyl-3,4-dihydro-2H-benzo[h]chromene-5,6-dione]
- body weight ([1]; 200 mg/kg daily oral, 56 days): effectively decreases body weight
- dietary intake level recovered, relative to control group ([1]; 200 mg/kg daily oral, after around 10 days): 70%
- dietary intake/body weight ([1]; 200 mg/kg daily oral, at around 10 days): notably decreased
- Weight reduction In ob/ob mice (4 wk) ([1]; after four weeks, relative to ob/ob mice without administration (control), method of Example 23): −16.8 ± 2.9%
- phosphorylation of AMPK and ACC in the gonadal and liver tissues ([2]; C57BL/6 DIO mice, 50 mg/kg daily, oral): has an effect on phosphorylation of AMPK and ACC
- S79 phosphorylation of ACC and T172 phosphorylation of AMPKα ([2]; gonadal fat of DIO mice treated for 2 days): no such effects
- S79 phosphorylation of ACC and T172 phosphorylation of AMPKα ([2]; liver and muscle (EDL, Soleus) of DIO mice treated for 2 days): increased
